How the values were obtained:
Botrytis cinerea = Botrytis cinerea (gray mold) radial mycelial growth on Potato Dextrose Agar; assay type: cell-based; conditions: 168 h, 22° C., 90% relative humidity, seven days, read-out: control compared to the untreated check
Method: Example 3: Botrytis cinerea (Gray Mold)
(§1) Compounds were dissolved in 0.3% DMSO & then added to Potato Dextrose Agar medium just prior to dispensing it into petri dishes. 5 mL medium with compound in the desired concentration was dispensed into 60 mm sterile petri-plates. After solidification, each plate was seeded with 5 mm size mycelial disc taken form periphery of actively growing virulent culture plate. Plates were incubated in growth chambers at 22° C. temperature and 90% relative humidity for seven days and radial growth was measured.

Pyricularia oryzae = experiment: microbe, parasite or virus in culture; assay type: cell-based; conditions: 168 h, read-out: control compared to the untreated check
Alternaria solani = Alternaria solani (early blight of tomato/potato) radial mycelial growth on Potato Dextrose Agar; assay type: cell-based; conditions: 168 h, Potato Dextrose Agar, 25° C., 60% relative humidity, seven days, read-out: control compared to the untreated check
Method: Example 4: Alternaria solani (Early Blight of Tomato/Potato)
as §1, with “solidification” for “solidification,”, “25°” for “22°”, “60%” for “90%”

Phakopsora pachyrhizi = Phakopsora pachyrhizi test in soybean, preventive spray; assay type: in vivo; conditions: preventive spray on soybean plants, inoculated one day after treatment, greenhouse 25° C., 90% relative humidity, read-out: control (efficacy, disease severity rating) compared to the untreated check
Method: Example 8: Phakopsora pachyrhizi Test in Soybean
Compounds were dissolved in 2% DMSO/Acetone & then mixed with water to the calibrated spray volume of 50 mL and poured into the spray bottles for further applications.
To test the preventive activity of compounds, healthy young soybean plants raised in the greenhouse were sprayed with active compound preparation at the stated application rates inside the spray cabinets using hallowcone nozzles. One day after treatment, the plants were inoculated with spore suspension containing 2.1×10^6 Phakopsora pachyrhizi inoculum. The inoculated plants were then kept in greenhouse chamber at 25° C. temperature & 90% relative humidity for disease expression.
A visual assessment of compound's performance was carried out by rating the disease severity (0-100% scale) on treated plants on 3, 7, 10 & 15 days after application. Efficacy (% control) of the compounds was calculated by comparing the disease rating in the treatment with the one of the untreated control. The sprayed plants were also assessed for compound's plant compatibility by recording symptoms like necrosis, chlorosis & stunting.

Colletotrichum capsici = Colletotrichum capsici (anthracnose) radial mycelial growth on Potato Dextrose Agar; assay type: cell-based; conditions: Colletotrichum truncatum, 168 h, 25° C., 60% relative humidity, seven days, read-out: control compared to the untreated check
Method: Example 5: Colletotrichum capsici (Anthracnose)
as §1, with “25°” for “22°”, “60%” for “90%”

Structure (SMILES) | inhibition of growth at 300 ppm (Botrytis cinerea) [%] | inhibition of growth at 300 ppm (Pyricularia oryzae) [%] | inhibition of growth at 300 ppm (Alternaria solani) [%] | pest or weed control at 500 ppm (Phakopsora pachyrhizi) [%] | inhibition of growth at 300 ppm (Colletotrichum capsici) [%]
CS(=O)(=NCc1cccc(-c2noc(C(F)(F)F)n2)c1)c1ccccc1 (centres unmarked) [Compound 138, methyl(phenyl)((3-(5-(trifluoromethyl)-1,2,4-oxadiazol-3-yl)benzyl)imino)-λ^6-sulfanone] | > 70 | > 70 | – | – | –
COc1ccc(S(C)(=O)=NC(=O)c2cccc(-c3noc(C(F)(F)F)n3)c2)cc1 (centres unmarked) [Compound 71, N-((4-methoxyphenyl)(methyl)(oxo)-λ^6-sulfaneylidene)-3-(5-(trifluoromethyl)-1,2,4-oxadiazol-3-yl)benzamide] | – | – | > 70 | > 90 | –
COc1ccc(S(C)(=O)=Nc2ccc(-c3noc(C(F)(F)F)n3)cc2)c(OC)c1 (centres unmarked) [Compound 96, (2,4-dimethoxyphenyl)(methyl)((4-(5-(trifluoromethyl)-1,2,4-oxadiazol-3-yl)phenyl)imino)-λ^6-sulfanone] | – | > 70 | > 70 | > 90 | –
CS(=O)(=NC(=O)c1ccc(-c2noc(C(F)(F)F)n2)cc1)c1nccs1 (centres unmarked) [Compound 48, N-(methyl(oxo)(thiazol-2-yl)-λ^6-sulfaneylidene)-4-(5-(trifluoromethyl)-1,2,4-oxadiazol-3-yl)benzamide] | > 70 | – | > 70 | > 90 | –
COc1ccc(S(=O)(=O)NC(=O)c2ccc(-c3noc(C(F)(F)F)n3)cc2)cc1 [Compound 157, N-((4-methoxyphenyl)sulfonyl)-4-(5-(trifiuoromethyl)-1,2,4-oxadiazol-3-yl)benzamide] | > 70 | – | > 70 | – | –
CS(=O)(Cc1ccccn1)=NC(=O)c1ccc(-c2noc(C(F)(F)F)n2)cc1 (centres unmarked) [Compound 52, N-(methyl(oxo)(pyridin-2-ylmethyl)-λ^6-sulfaneylidene)-4-(5-(trifluoromethyl)-1,2,4-oxadiazol-3-yl)benzamide] | – | – | > 70 | > 90 | –
COc1ccc(S(C)(=O)=NCc2cccc(-c3noc(C(F)(F)F)n3)c2)c(OC)c1 (centres unmarked) [Compound 140, (2,4-dimethoxyphenyl)(methyl)((3-(5-(trifluoromethyl)-1,2,4-oxadiazol-3-yl)benzyl)imino)-sulfanone] | > 70 | – | – | – | –
CS(=O)(Cc1ccc(Cl)c(F)c1)=Nc1ccc(-c2noc(C(F)(F)F)n2)cc1 (centres unmarked) [Compound 99, (4-chloro-3-florobenzyl)(methyl)((4-(5-(trifluoromethyl)-1,2,4-oxadiazol-3-yl)phenyl)imino)-λ^6-sulfanone] | – | – | > 70 | > 90 | –
CS(=O)(=NC(=O)c1ccc(-c2noc(C(F)(F)F)n2)cc1)c1ccc(F)cc1F (centres unmarked) [Compound 47, N-((2,4-difluorophenyl)(methyl)(oxo)-λ^6-sulfaneylidene)-4-(5-(trifluoromethyl)-1,2,4-oxadiazol-3-yl)benzamide] | – | – | > 70 | > 90 | –
Cc1ccc(S(C)(=O)=NCc2ccc(-c3noc(C(F)(F)F)n3)cc2)cc1 (centres unmarked) [Compound 137, methyl(p-tolyl)((4-(5-(trifluoromethyl)-1,2,4-oxadiazol-3-yl)benzyl)imino)-λ^6-sulfanone] | – | > 70 | > 70 | – | –
COc1ccc(S(C)(=O)=NC(=O)c2ccc(-c3noc(C(F)(F)F)n3)cc2)c(OC)c1 (centres unmarked) [Compound 56, N-((2,4-dimethoxyphenyl)(methyl)(oxo)-λ^6-sulfaneylidene)-4-(5-(trifluoromethyl)-1,2,4-oxadiazol-3-yl)benzamide] | – | – | > 70 | > 90 | –
Cc1csc(S(C)(=O)=Nc2ccc(-c3noc(C(F)(F)F)n3)cc2)n1 (centres unmarked) [Compound 117, methyl(4-methylthiazol-2-yl)((4-(5-(trifluoromethyl)-1,2,4-oxadiazol-3-yl)phenyl)imino)-λ^6-sulfanone] | – | > 70 | > 70 | – | –
COc1ccc(S(C)(=O)=NCc2cccc(-c3noc(C(F)(F)F)n3)c2)cc1 (centres unmarked) [Compound 139, (4-methoxyphenyl)(methyl)((3-(5-(trifluoromethyl)-1,2,4-oxadiazol-3-yl)benzyl)imino)-λ^6-sulfanone] | > 70 | > 70 | – | – | –
CS(=O)(=Nc1ccc(-c2noc(C(F)(F)F)n2)cc1)c1cccc(F)c1 (centres unmarked) [Compound 14, (3-fluorophenyl)(methyl)((4-(5-(trifluoromethyl)-1,2,4-oxadiazol-3-yl)phenyl)imino)-λ^6-sulfanone] | > 70 | > 70 | > 70 | > 90 | –
CS(=O)(Cc1ccncc1)=NC(=O)c1ccc(-c2noc(C(F)(F)F)n2)cc1 (centres unmarked) [Compound 59, N-(mehtyl(oxo)(pyridin-4-ylmethyl)-λ^6-sulfaneylidene)-4-(5-(trifluoromethyl)-1,2,4-oxadiazol-3-yl)benzamide] | – | – | > 70 | > 90 | –
COc1ccc(S(C)(=O)=Nc2ccc(-c3noc(C(F)(F)F)n3)cc2)cc1 (centres unmarked) [Compound 20, (4-methoxyphenyl)(methyl)((4-(5-(trifluoromethyl)-1,2,4-oxadiazol-3-yl)phenyl)imino)-λ^6-sulfanone] | – | > 70 | > 70 | > 90 | –
CS(=O)(=NC(=O)C1CC1)c1ccc(-c2noc(C(F)(F)F)n2)cc1 (centres unmarked) [Compound 181, N-(methyl(oxo)(4-(5-(trifluoromethyl)-1,2,4-oxadiazol-3-yl)phenyl)-λ^6-sulfaneylidene)cyclopropanecarboxamide] | – | > 70 | – | – | > 70
CS(=O)(Cc1cc(F)ccc1F)=NC(=O)c1ccc(-c2noc(C(F)(F)F)n2)cc1 (centres unmarked) [Compound 62, N-((2,5-difluorobenzyl)(methyl)(oxo)-λ^6-sulfaneylidene)-4-(5-(trifluoromethyl)-1,2,4-oxadiazol-3-yl)benzamide] | – | – | > 70 | > 90 | –
CS(=O)(=NCc1cccc(-c2noc(C(F)(F)F)n2)c1)c1ccccc1F (centres unmarked) [Compound 148, (2-fluorophenyl)(methyl)((3-(5-(trifluoromethyl)-1,2,4-oxadiazol-3-yl)benzyl)imino)-λ^6-sulfanone] | – | > 70 | > 70 | – | –
CS(=O)(Cc1ccc(C(F)(F)F)cc1)=Nc1ccc(-c2noc(C(F)(F)F)n2)cc1 (centres unmarked) [Compound 90, methyl((4-(5-(trifluoromethyl)-1,2,4-oxadiazol-3-yl)phenyl)imino)(4-(trifluoromethyl)benzyl)-λ^6-sulfanone] | > 70 | – | – | – | –
COc1ccc(S(C)(=O)=Nc2ccc(-c3noc(C(F)(F)F)n3)nc2)cc1 (centres unmarked) [Compound 108, (4-methoxyphenyl)(methyl)((6-(5-(trifluoromethyl)-1,2,4-oxadiazol-3-yl)pyridin-3-yl)imino)-λ^6-sulfanone] | > 70 | – | > 70 | > 90 | –
CS(=O)(=Nc1ccc(-c2noc(C(F)(F)F)n2)nc1)c1ccccc1 (centres unmarked) [Compound 109, methyl(phenyl)((6-(5-(trifluoromethyl)-1,2,4-oxadiazol-3-yl)pyridin-3-yl)imino)-λ^6-sulfanone] | > 70 | – | > 70 | > 90 | –
Cc1ccc(S(=O)(=O)NC(=O)c2ccc(-c3noc(C(F)(F)F)n3)cc2)cc1 [Compound 153, N-tosyl-4-(5-(trifluoromethyl)-1,2,4-oxadiazol-3-yl)benzamide] | > 70 | – | – | – | –
CS(=O)(Cc1ccc(C#N)cc1)=NC(=O)c1cccc(-c2noc(C(F)(F)F)n2)c1 (centres unmarked) [Compound 75, N-((4-cyanobenzyl)(methyl)(oxo)-λ^6-sulfaneylidene)-3-(5-(trifluoromethyl)-1,2,4-oxadiazol-3-yl)benzamide] | – | – | > 70 | > 90 | –
O=C(NS(=O)(=O)c1c(Cl)cccc1Cl)c1ccc(-c2noc(C(F)(F)F)n2)cc1 [Compound 163, N-((2,6-dichlorophenyl)sulfonyl)-4-(5-(trifiuoromethyl)-1,2,4-oxadiazol-3-yl)benzamide] | – | – | > 70 | – | –
